Experimental data reported in PubChem BioAssay (NCI).
“And” between values parts separate entries of the source, which are not always exact repeats. Equal entries are not always repeated.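 Test compounds were applied to cells in 96-well plates for 48 hours at 5 doses. The concentration for 50% growth inhibition is given as GI50. TGI marks complete inhibition of growth.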

How the values were obtained:
Test in all cases: NCI tumour cell line growth inhibition, 48 h
[1] = tested on: KM12 colon
[2] = tested on: SK-MEL-5 melanoma
[3] = tested on: IGROV1 ovarian
[4] = tested on: T-47D breast
[5] = tested on: UACC-257 melanoma
[6] = tested on: NCI-H23 lung
[7] = tested on: NCI-H522 lung
[8] = tested on: OVCAR-5 ovarian
[9] = tested on: OVCAR-8 ovarian
[10] = tested on: DU-145 prostate
[11] = tested on: MDA-N
[12] = tested on: BT-549 breast
[13] = tested on: SF-268 CNS

Structure (SMILES)	TGI [1]	TGI [2]	TGI [3]	TGI [4]	TGI [5]	TGI [6]	TGI [7]	TGI [8]	TGI [9]	TGI [10]	TGI [11]	TGI [12]	GI50 [1]	GI50 [9]	TGI [13]
COc1ccc(S(=O)(=O)N2C(=O)CCC2C(=O)NC(N)=O)cc1 (stereo unspecified)	> 100 µM	> 100 µM	> 100 µM	> 100 µM	> 100 µM	> 100 µM	> 100 µM	> 100 µM	> 100 µM	> 100 µM	> 100 µM	> 100 µM			
CC1OC(OC2C(OC(=O)[C@]34CCC(C)(C)C[C@H]3C3=CC[C@@H]5[C@@]6(C)CC[C@H](OC7OC(C(=O)O)C(O)C(O)C7O)C(C)(C)[C@@H]6CC[C@@]5(C)[C@]3(C)C[C@H]4O)OCC(O)C2O)C(O)C(O)C1OC1OCC(O)C(O)C1O (stereo partly specified)	22.3 µM and 14.2 µM	30.5 µM and 34.7 µM	31.5 µM and 27.8 µM	96.2 µM and 30.6 µM	32.6 µM and 34.1 µM	18.2 µM and 20.7 µM	24.4 µM	28.5 µM and 23 µM	26.5 µM and 5.19 µM	28.9 µM and 27.4 µM	27.3 µM and 23.5 µM	26.9 µM and 29.8 µM	9.85 µM and 3.45 µM	13.2 µM and 2.33 µM	34.6 µM and 25.4 µM
CCn1cc2c(=O)n3ncn(-c4ccc(Br)cc4)c3nc2n1	> 100 µM	> 100 µM	> 100 µM	> 100 µM	> 100 µM	> 100 µM	> 100 µM	> 100 µM	> 100 µM	> 100 µM	> 100 µM	> 100 µM			> 100 µM
O=c1nc2n3c4c(cccc4nc-2c(=O)[nH]1)CCC3	> 100 µM	> 100 µM	> 100 µM	> 100 µM	> 100 µM	> 100 µM	71.4 µM	> 100 µM	> 100 µM	> 100 µM	> 100 µM	> 100 µM			> 100 µM
CC1=C(C(=O)OC2CC3CCC2(C)C3(C)C)C2Nc3ccccc3N(C)C2O1 (stereo unspecified)	8.67 µM	3.53 µM	6.97 µM	11.8 µM	3.3 µM	6.59 µM	4.02 µM	25.9 µM	9.02 µM	2.79 µM	3.55 µM	6.43 µM			22.5 µM
CN(C)C(C1=C(O)C(c2ccccc2)N(c2ccccc2)C1=O)N1CCOCC1 (stereo unspecified)	> 10 µM	> 10 µM	> 10 µM	> 10 µM	> 10 µM	> 10 µM	> 10 µM	> 10 µM	> 10 µM	> 10 µM	> 10 µM	> 10 µM			> 10 µM
COc1cccc(/C=N/n2c(Cc3ccccc3)n[nH]c2=O)c1	> 100 µM	> 100 µM		> 100 µM	> 100 µM	> 100 µM	> 100 µM	> 100 µM	> 100 µM	> 100 µM	> 100 µM	> 100 µM			> 100 µM
CN1C(=O)C2(C)SC1(c1ccccc1)C1C(=O)N(c3ccccc3)C(=O)C12 (stereo unspecified)	> 100 µM	> 100 µM	> 100 µM	> 100 µM	93.3 µM	> 100 µM	> 100 µM	> 100 µM	> 100 µM	> 100 µM	> 100 µM	> 100 µM			> 100 µM
COc1ccc2c(c1)Cc1c(NCCN(C)C)ccc(C(=O)NCCCN(C)CCCNC(=O)c3ccc(NCCN(C)C)c4c3Nc3ccc(OC)cc3C4)c1N2	0.887 µM	1.72 µM	3.95 µM	12.5 µM	1.1 µM	0.581 µM	0.0514 µM	0.631 µM	2.86 µM	1.04 µM	0.224 µM	1.5 µM			0.327 µM
N#CC12C(=O)NC(=O)C1(C#N)C1C=CC2CC1 (stereo unspecified)	> 100 µM	> 100 µM		> 100 µM	> 100 µM	> 100 µM	> 100 µM	> 100 µM	> 100 µM	> 100 µM	> 100 µM	> 100 µM			> 100 µM
CCOc1cc(C2CC(c3ccc(NS(=O)(=O)c4cc([N+](=O)[O-])ccc4C)cc3)=NN2S(=O)(=O)c2cc([N+](=O)[O-])ccc2C)ccc1O (stereo unspecified)	> 100 µM	64.8 µM	> 100 µM	65.1 µM	> 100 µM	> 100 µM	> 100 µM	> 100 µM	> 100 µM	> 100 µM	> 100 µM	> 100 µM			> 100 µM
NC1N=C(c2ccc(Cl)cc2)C2=C(N1)c1ccccc1CC2 (stereo unspecified)	> 67 µM	> 56.3 µM	> 57.1 µM	> 100 µM	> 100 µM	> 100 µM	36.2 µM	> 100 µM	> 100 µM	> 100 µM	> 100 µM	> 100 µM			> 100 µM
CCN1CCC(O)(c2ccc(Oc3ccc(Cl)cc3)cc2)C(C(=O)c2ccc(Oc3ccc(Cl)cc3)cc2)C1 (stereo unspecified)	14.9 µM	24.7 µM	23.5 µM	36.6 µM	27.1 µM	25.7 µM	12 µM	26.4 µM	38.6 µM	34.3 µM	27 µM	29.7 µM			44.3 µM
N#CC12C(=O)N3C(=NC(c4ccco4)NC3c3ccco3)C1(C#N)C(c1ccco1)NC1=C2CCCC1 (stereo unspecified)	> 100 µM	> 100 µM	> 100 µM	> 100 µM	> 100 µM	> 100 µM	> 100 µM	> 100 µM	> 100 µM	> 100 µM	> 100 µM	> 100 µM			> 100 µM
CO/C=C/C=C(\C#N)C(=O)OC	> 100 µM	> 100 µM	> 100 µM	> 100 µM	> 100 µM	> 100 µM	> 100 µM	> 100 µM	> 100 µM	> 100 µM	> 100 µM	> 100 µM			> 100 µM
CCOC(=O)c1nc2cc(C(F)(F)F)ccc2nc1Oc1ccc(C#N)cc1	> 100 µM	> 100 µM	> 100 µM	> 100 µM	> 100 µM		> 100 µM	> 100 µM	> 100 µM	> 100 µM	> 100 µM	> 100 µM			> 100 µM
